One may read the solubility as how much of the substance goes into solution per volume. A low value points to little dissolved substance. In general, IC50 refers to the midpoint of a concentration-inhibition curve. High values mean a need for much substance, low ones inhibition by little substance. Broadly, the Ki is the equilibrium dissociation constant of an inhibitor or competing ligand from its target. The low end stands for higher affinity, the high end for lower affinity.

A short description of series [1]: Thermodynamic solubility in PBS (pH 7.4). The class given is physicochemical. As to conditions: aqueous buffer, thermodynamic from solid.
For series [2], the target named is T1, purified LasB (Pseudomonas aeruginosa, UniProt P14756).
T1 construct: The mature LasB protein is a 33 kDa metalloprotease, which is secreted from P. aeruginosa; host or cells: P. aeruginosa PAO1 (native secretion, culture supernatant)
T1 sequence (P14756 198-498): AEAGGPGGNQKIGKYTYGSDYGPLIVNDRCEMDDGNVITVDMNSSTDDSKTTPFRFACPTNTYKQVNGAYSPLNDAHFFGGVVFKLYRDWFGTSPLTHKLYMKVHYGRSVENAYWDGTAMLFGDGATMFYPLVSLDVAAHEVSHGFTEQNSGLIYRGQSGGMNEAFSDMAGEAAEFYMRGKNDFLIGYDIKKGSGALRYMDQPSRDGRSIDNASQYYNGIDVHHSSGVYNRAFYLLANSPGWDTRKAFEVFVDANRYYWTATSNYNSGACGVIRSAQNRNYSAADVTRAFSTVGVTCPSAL
As to the kind of experiment: LasB inhibition, fluorimetric Abz-AGLA-Nba hydrolysis assay with purified LasB. The class given is biochemical. The source says: This was chosen as the starting point for a medicinal chemistry-driven lead optimization program aiming to improve potency and solubility whilst retaining selectivity against host metalloenzymes. All synthesized compounds were initially assessed in a fluorimetric assay measuring hydrolysis of a fluorogenic substrate Abz-Ala-Gly-Leu-Ala-4-nitrobenzylamide (Abz-AGLA-Nba) by purified LasB and IC50 values determined (Tables 1 and 2). Inhibition of elastin hydrolytic activity was confirmed using an orthogonal assay measuring hydrolysis of Elastin Congo Red (ECR) complex by LasB prepared directly from a P. aeruginosa culture supernatant (Tables 1 and 2). […] Aqueous solubility was determined for most compounds (Tables 1 and 2).
Native LasB protein was purified from culture supernatants of P. aeruginosa strain PAO1 (Charles River Laboratories, U.K.). Briefly, the sample was concentrated by ultrafiltration and the protein was purified by chromatography using an anion exchange (pH 8.5) step followed by gel filtration. This procedure yielded an enzyme preparation (0.8 mg/mL) of >98% purity. The enzyme was stored at −80 °C.
LasB inhibition assays were performed using purified LasB enzyme (1 ng/well) for compound screening or using culture supernatants (prepared as described in the ECR assay) for testing LasB variants. Hydrolysis of the fluorogenic peptide substrate 2-aminobenzoyl-Ala-Gly-Leu-Ala-4-nitrobenzylamide (Abz-AGLA-Nba; Peptide International) in 50 mM Tris-HCl (pH 7.4), supplemented with 2.5 mM CaCl2 was followed using an Envision microplate reader (PerkinElmer) at 315 nm excitation and 430 nm emission. For screening of lead compounds, assays were performed in the presence of 0.01% Triton X-100 with a range of inhibitor concentrations from 0.003 to 3.2 μM. IC50 values were determined from Hill plots using Dotmatics Studies ELN software. For the mechanism of inhibition studies, hydrolysis rates were measured in the presence of variable concentrations of substrate and inhibitor, and the inhibition constant (Ki) was determined using Dixon plot analysis.[31]

A short description of series [3]: Cytotoxicity screening (MTS), BSMC. As to conditions: human, bronchial smooth muscle cells (BSMC). The format is cell-based. As to the method:
(§1) Bronchial smooth muscle cells (BSMC, Lonza CC-2576), small airway epithelial cells (SAEC, Lonza CC-2547), or HepG2 cells (ATCC HB-8065) were seeded in 96-well plates at a density of 25,000 per well. Culture of these cells throughout the protocol utilized incubation at 37 °C, 5% CO2 in a humidified atmosphere, with BSMC and SAEC cells cultured in cell-specific media (Lonza) and HepG2 cells cultured in RPMI 1640 medium containing Glutamax (Gibco) and 10% fetal bovine serum. Plates containing BSMC cells were collagen coated to assist with cell adhesion. Following an overnight settling period, media was replaced with fresh media, with, or without, compound. Compound concentrations tested were 1, 3, 10, 30, and 100 μM, in duplicate. The cells were incubated with compound for 24 h. Control (1% DMSO) and positive standards terfenadine- and salmeterol-treated groups were included for both cell lines. […] The reaction was stopped with 12.5 μL of 10% SDS, plates briefly shaken, and absorbance (490 nm) read using a Spectramax M5e plate reader (Molecular Devices). Percentages of viable cells were calculated as: (test sample Abs 490 nM-mean blank Abs 490 nm)/(mean control Abs 490 nM-mean blank Abs 490 nm) × 100.

Series [4] deals with T1, purified LasB. The series is described as follows: Inhibition of LasB-mediated proteolysis of pro-IL-1β-derived peptide Sub115. The format is biochemical, P. aeruginosa. The source says: Previous studies have shown that LasB cleaves the N-terminal domain of pro-IL-1β, thereby generating a mature active form of IL-1β in a manner analogous to the normal host activation mechanism involving cleavage by caspases.[16] This activity can be followed spectrophotometrically via hydrolysis of an internally quenched fluorescent peptide Sub115 (McA-HDAPVRSLN-K-Dnp), which incorporates the LasB cleavage site from pro-IL-1β. To determine whether compounds 12 and 16 were able to inhibit this activity, Sub115 hydrolysis was measured in the presence of varying concentrations of substrate and inhibitors (Figure 2B). […] These values, although still submicromolar, were higher than those determined with the Abz-AGLA-Nba hydrolysis assay, perhaps due to the different ion composition of the respective assay buffers.
The peptide HDAPVRSLN, corresponding to amino acids 115–123 of the reference human pro-IL-1β sequence (UniProt: PO1584), was labeled on the N-terminus with Mca and on the C-terminus with Lys-Dnp (CPC Scientific) to generate an internally quenched fluorescent peptide (Sub115). […] The reaction was continuously monitored using a Victor multimode plate reader (PerkinElmer) with excitation at 355 nm and emission at 450 nm, and initial kinetic velocity was calculated. Inhibitory constants (Ki) were determined (two independent replicates) using a competitive inhibitor model.

Series [5] is described as follows: Cytotoxicity screening (MTS), HepG2. The class given is cell-based. As to conditions: human, HepG2 cells. The procedure:
as §1

For `COc1cc2sc(CNC(=O)C3(CC(=O)O)Cc4cc(F)c(F)cc4C3)nc2cc1OCCC[N+](C)(CCO)CCO` [Compound 16], the concentration in solution in series [1] (solubility) was 15.1 mg/mL. This molecule also registered an IC50 in series [2] of 80 nM. The Ki in series [2] turned out to be 32 nM; in series [4], 475 nM. Further, the IC50 at 24 h in series [3] and in series [5] was > 100 µM in each case.
For `COc1cc2sc(CNC(=O)C3(CC(=O)O)Cc4ccccc4C3)nc2cc1OCCC[N+](C)(C)C` [Compound 12], in series [1], the concentration in solution (solubility) came to 17.7 mg/mL. Further, in series [2], inhibition was half-maximal at 130 nM (IC50). Further, the Ki in series [2] turned out to be 35 nM; in series [4], 704 nM. Moreover, the IC50 at 24 h in series [3] and in series [5] was > 100 µM in each case.

For the origin of these results see PMC9926489, “Chemical Optimization of Selective Pseudomonas aeruginosa LasB Elastase Inhibitors and Their Impact on LasB-Mediated Activation of IL-1β in Cellular and Animal Infection Models” (ACS Infectious Diseases, 2023).
